Values of other authors, collected in PMC7887855 (ACS Pharmacology & Translational Science, 2020).

Test system: Mtb
Settings: multiple daily IP injections, mice

## C=Cc1c2[n-]c(c1C)/C=c1\[n-]/c(c(C)c1C=C)=C\c1[n-]c(c(CCC(=O)O)c1C)C=c1[n-]/c(c(C)c1CCC(=O)O)=C\2.[Sn+4] [SnPPIX, tin protoporphyrin IX]
  effect on mycobacterial load as monotherapy: significantly decrease mycobacterial load
  effect on treatment time in combination with conventional TB antibiotics: reduced treatment time by over one month
